Laboratory results as given in the NIST ThermoML archive (doi:10.1016/j.fluid.2005.06.010).

Experiment: xn = mol fraction of the nth substance listed
Details: Fluid (supercritical or subcritical phases), Vibrating tube method

c1ccc2ccccc2c1 [naphthalene] + O=C=O
Details	mass density [kg/m3]
313.11 K, 8747 kPa, x1 = 0.0049	531.42
313.11 K, 8855 kPa, x1 = 0.0049	556.55
313.11 K, 8983 kPa, x1 = 0.0093	627.46
313.11 K, 9034 kPa, x1 = 0.0093	633.13
313.11 K, 9048 kPa, x1 = 0.0049	590.85
313.11 K, 9499 kPa, x1 = 0.0049	639
313.11 K, 9997 kPa, x1 = 0.0049	670.97
313.11 K, 10053 kPa, x1 = 0.0093	697.27
313.11 K, 11012 kPa, x1 = 0.0049	712.47
313.11 K, 11036 kPa, x1 = 0.0093	731.61
313.11 K, 11998 kPa, x1 = 0.0093	755.87
313.11 K, 12044 kPa, x1 = 0.0049	741.27
313.11 K, 12486 kPa, x1 = 0.0173	783.64
313.11 K, 12995 kPa, x1 = 0.0049	761.49
313.11 K, 13003 kPa, x1 = 0.0093	775.73
313.11 K, 13034 kPa, x1 = 0.0173	790.35
313.11 K, 14017 kPa, x1 = 0.0049	779.61
313.11 K, 14028 kPa, x1 = 0.0093	792.52
313.11 K, 14045 kPa, x1 = 0.0173	805.22
313.11 K, 14979 kPa, x1 = 0.0049	794.2
313.11 K, 14995 kPa, x1 = 0.0093	806.12
313.11 K, 15031 kPa, x1 = 0.0173	818.06
313.11 K, 16007 kPa, x1 = 0.0093	818.64
313.11 K, 16029 kPa, x1 = 0.0049	808.12
313.11 K, 16046 kPa, x1 = 0.0173	829.54
313.11 K, 16999 kPa, x1 = 0.0049	819.57
313.11 K, 17003 kPa, x1 = 0.0093	829.62
313.11 K, 17015 kPa, x1 = 0.0173	839.94
313.11 K, 18017 kPa, x1 = 0.0173	849.35
313.11 K, 18019 kPa, x1 = 0.0093	839.78
313.11 K, 18053 kPa, x1 = 0.0049	830.86
313.11 K, 19023 kPa, x1 = 0.0049	840.37
313.11 K, 19029 kPa, x1 = 0.0093	849.05
313.11 K, 19030 kPa, x1 = 0.0173	858.05
313.11 K, 19995 kPa, x1 = 0.0093	857.27
313.11 K, 20008 kPa, x1 = 0.0049	849.27
313.11 K, 20013 kPa, x1 = 0.0173	865.93
313.11 K, 20987 kPa, x1 = 0.0049	857.52
313.11 K, 20997 kPa, x1 = 0.0093	865.26
313.11 K, 21031 kPa, x1 = 0.0173	873.48
313.11 K, 21996 kPa, x1 = 0.0049	865.5
313.11 K, 22000 kPa, x1 = 0.0093	872.7
313.11 K, 22008 kPa, x1 = 0.0173	880.38
313.11 K, 22977 kPa, x1 = 0.0049	872.82
313.11 K, 22989 kPa, x1 = 0.0173	886.86
313.11 K, 22998 kPa, x1 = 0.0093	879.67
313.11 K, 24021 kPa, x1 = 0.0093	886.44
313.11 K, 24036 kPa, x1 = 0.0173	893.38
313.11 K, 24043 kPa, x1 = 0.0049	880.36
313.11 K, 24684 kPa, x1 = 0.0173	897.25
313.11 K, 24941 kPa, x1 = 0.0093	892.28
313.13 K, 10564 kPa, x1 = 0.0144	726.54
313.13 K, 10994 kPa, x1 = 0.0144	737.45
313.13 K, 12022 kPa, x1 = 0.0144	761.26
313.13 K, 13026 kPa, x1 = 0.0144	779.83
313.13 K, 13996 kPa, x1 = 0.0144	794.9
313.13 K, 15027 kPa, x1 = 0.0144	808.74
313.13 K, 16009 kPa, x1 = 0.0144	820.49
313.13 K, 16978 kPa, x1 = 0.0144	831.02
313.13 K, 17970 kPa, x1 = 0.0144	840.48
313.13 K, 19038 kPa, x1 = 0.0144	850.11
313.13 K, 20010 kPa, x1 = 0.0144	858.26
313.13 K, 21047 kPa, x1 = 0.0144	866.4
313.13 K, 22028 kPa, x1 = 0.0144	873.6
313.13 K, 23018 kPa, x1 = 0.0144	880.48
313.13 K, 24032 kPa, x1 = 0.0144	887.14
313.13 K, 25059 kPa, x1 = 0.0144	893.55
318.03 K, 13470 kPa, x1 = 0.0198	763.8
318.03 K, 13587 kPa, x1 = 0.0198	765.92
318.03 K, 13765 kPa, x1 = 0.0198	769.11
318.03 K, 13870 kPa, x1 = 0.0198	770.92
318.03 K, 13982 kPa, x1 = 0.0198	772.89
318.03 K, 14098 kPa, x1 = 0.0198	774.83
318.03 K, 14247 kPa, x1 = 0.0198	777.23
318.03 K, 14369 kPa, x1 = 0.0198	779.18
318.03 K, 14487 kPa, x1 = 0.0198	781.08
318.03 K, 14571 kPa, x1 = 0.0198	782.37
318.03 K, 14668 kPa, x1 = 0.0198	783.91
318.03 K, 14765 kPa, x1 = 0.0198	785.29
318.03 K, 14877 kPa, x1 = 0.0198	787
318.03 K, 14970 kPa, x1 = 0.0198	788.42
318.03 K, 15080 kPa, x1 = 0.0198	789.97
318.03 K, 15304 kPa, x1 = 0.0198	793.1
318.03 K, 15487 kPa, x1 = 0.0198	795.62
